Values quoted from earlier work in patent US20100105761A1, “TREATMENT OF PAIN THROUGH EXPRESSION OF OPIOID RECEPTORS” (priority 2006, published 2010).
Read-outs that look alike come from different tables or passages of the source.

Key:
TMJ area = conditions: rats, dose dependent
masseter muscle [1] = conditions: rat
masseter muscle [2] = conditions: human
μ receptor [3] = tested on: μ receptor
TMJ = conditions: placed into the TMJ of cats
μ receptor [4] = conditions: in vivo

In the case of `N[C@@H](CCC(=O)O)C(=O)O` [glutamate], the “EMG activity after injection into the TMJ area” value (TMJ area) is listed as “induced a prolonged increase in EMG activity”, the “masseter muscle activity, female versus male” value (masseter muscle [1]) is listed as “evoked higher masseter muscle activity in female than males” and the “masseter muscle activity, female versus male” value (masseter muscle [2]) is listed as “evoked higher masseter muscle activity in female than males”.
In the case of `CC(=O)Oc1ccc2c3c1O[C@H]1[C@@H](OC(C)=O)C=C[C@H]4[C@@H](C2)N(C)CC[C@@]341` [heroin], the “antinociception in mice of the CXBX strain” value (μ receptor [3]; CXBX strain) is listed as “potently antinociceptive” and the “antinociception in MOR-1 knockout mice, exon-1 disrupted” value (μ receptor [3]; MOR-1 knockout, exon-1) is listed as “still produce antinociception”.
In the case of `NCCc1c[nH]cn1` [histamine], the “EMG activity in the temporal, digastric and genioglossus muscles” value (TMJ) is given as “increase in electromyographic (EMG) activity”.
In the case of `C=CCN1CC[C@]23c4c5ccc(O)c4O[C@H]2/C(=N\N)CC[C@@]3(O)[C@H]1C5` [naloxazone], the “effect on binding of radioligands to the μ1-site” value (μ1-site) is listed as “abolish the binding of radioligands”, the “blockade of morphine-induced antinociception” value (μ receptor [4]) is listed as “selectively blocked” and the “blockade of morphine-induced respiratory depression” value (μ receptor [4]) is listed as “did not block”. For the same molecule, the “blockade of the induction of morphine dependence” value (μ receptor [4]) was “did not block”.
In the case of `C=CCN1CC[C@]23c4c5ccc(O)c4O[C@H]2/C(=N/N=C2\CC[C@@]4(O)[C@H]6Cc7ccc(O)c8c7[C@@]4(CCN6CC=C)[C@H]2O8)CC[C@@]3(O)[C@H]1C5` [naloxonazine], the “effect on binding of radioligands to the μ1-site” value (μ1-site) is given as “abolish the binding of radioligands”.
For `[Cl-].[K+]` [potassium chloride], the “EMG activity in the temporal, digastric and genioglossus muscles” value (TMJ) is given as “increase in electromyographic (EMG) activity”.
